For data set [1], the system named is Mycobacterium avium ATCC700898. Description: Determination of IC85 against M. avium (resazurin fluorescence). In kind it is cell-based. The conditions noted are these: Mycobacterium avium, ATCC700898, M. avium ATCC700898, CAMHB medium, 37° C., 3 days incubation then resazurin, fluorescence one day later; read-out: IC85. (Resazurin is reduced to fluorescent resorufin, in cell work by metabolically active cells.)

The nature of data set [2]: Metabolic stability test in pooled human liver microsomes. The data set is classed as in vitro ADME. Conditions: human liver microsomes 0.5 mg protein/mL, 1 mmol/L NADPH, 37° C., 30 minutes. Summed up:
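Remaining-rate readout: parent compound left after 30 min versus 0 min (set as 100%), measured by LC/MS/MS or SPE/MS. Oxidative reaction ran at 37° C. with 1 mmol/L NADPH, 0.5 mg protein/mL pooled human microsomes, 50 mmol/L Tris-HCl pH 7.4 buffer.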
On the technique in general: Liver microsomes are a subcellular fraction often used to study metabolism.

Regarding `Cc1nn2ccc(Br)cc2c1C(=O)NCc1ccc(N2CCN(c3ccc(OC(F)(F)F)cc3)[C@@H](C)C2)c(F)c1.Cl` [Compound I-1-122], the IC85 in data set [1] is 66 nM. Moreover, the “MS_h_% (remaining amount of compound after reaction, 0 minute = 100%)” value in data set [2] was found to be 81%.
For `CCCCOc1ccc(N2CCC(c3ccc(CNC(=O)c4c(CC)nc5ccc(Cl)cn45)c(F)c3)CC2)cc1.Cl` [Compound I-1-145] the same measures were 16 nM and 80%.
For `Cc1nc2ccc(Br)cn2c1C(=O)NCc1ccc(N2CCN(c3ccc(OC(F)(F)F)cc3)[C@@H](C)C2)c(F)c1` [Compound I-2-14] the same measures were 4.5 nM and 67%.
The like results for `Cc1nc2ccc(Cl)cn2c1C(=O)NCc1ccc(N2CCN(c3ccc(OC(F)(F)F)cc3)[C@H](C)C2)c(F)c1.Cl` [Compound I-1-85] were, in that order, 6.9 nM and 91%.
For the molecule `COc1ccn2nc(C)c(C(=O)NCc3ccc(N4CCC(c5ccc(OC(F)(F)F)cc5)CC4)c(Cl)c3)c2c1.Cl` [Compound I-1-128], the IC85 in data set [1] was found to be 18 nM. Also, in data set [2], the “MS_h_% (remaining amount of compound after reaction, 0 minute = 100%)” value came out at 85%.
The like results for `CCc1nc2ccc(Cl)cn2c1C(=O)NCc1ccc(N2CCC(c3ccc(OC(F)(F)F)cc3)CC2)c(F)c1.Cl` [Compound I-1-62] were, in that order, 7.2 nM and 82%.
With `CCc1nc2ccc(Cl)cn2c1C(=O)NCc1ccc(C2CCN(c3ccc(OC4CC4)cc3)CC2)c(F)c1.Cl` [Compound I-1-74], in data set [1], the IC85 came out at 39 nM. Besides, the “MS_h_% (remaining amount of compound after reaction, 0 minute = 100%)” value in data set [2] came out at 64%.
Take `CCc1nc2ccc(Cl)cn2c1C(=O)NCc1ccc(C2CCN(c3ccc(OCC(C)C)cn3)CC2)c(F)c1.Cl` [Compound I-1-79]: in data set [1], the IC85 is 36 nM. Further, in data set [2], the “MS_h_% (remaining amount of compound after reaction, 0 minute = 100%)” value was 65%.
The like results for `Cl.O=C(NCc1ccc(OC2CCC(Oc3ccc(OC(F)(F)F)cc3)CC2)c(F)c1)c1cnc2ccc(Cl)cn12` (stereo not shown) [Compound I-3-41] were, in that order, 150 nM and 65.4%.
For `Cc1ccn2c(C(=O)NCc3ccc(N4CCN(C5CN(CC(F)(F)F)C5)[C@@H](C)C4)c(F)c3)c(C)nc2c1` [Compound I-3-26] the same measures were 960 nM and 77%.
The like results for `CCc1nc2cc(F)ccn2c1C(=O)NCc1ccc(N2C[C@H](C)N(c3ccc(OCC(F)(F)F)nc3)C[C@H]2C)c(F)c1.Cl` [Compound I-1-135] were, in that order, 120 nM and 75%.

(Values after patent US20220340566A1, “BENZYL AMINE-CONTAINING 5,6-HETEROAROMATIC COMPOUNDS USEFUL AGAINST MYCOBACTERIAL INFECTION” (priority 2019, published 2022).)
